Assay results taken from ChEMBL document CHEMBL1148057, “1'-(2-Phenyl-ethylene)-ditryptophenaline, a new dimeric diketopiperazine from Aspergillus flavus” (J Nat Prod, 1994).
pIC50: −log10 of the molar value. Activity calls are given as the source filed them. The rule behind the calls is not given here.

Tests used:
Substance-P receptor [1] = target: T1, Substance-P receptor (Homo sapiens, UniProt P25103); experiment: Inhibition of substance P receptor at 100 uM
Substance-P receptor [2] = target: T1, Substance-P receptor; experiment: Inhibition of substance P receptor

T1 sequence (P25103 whole entry): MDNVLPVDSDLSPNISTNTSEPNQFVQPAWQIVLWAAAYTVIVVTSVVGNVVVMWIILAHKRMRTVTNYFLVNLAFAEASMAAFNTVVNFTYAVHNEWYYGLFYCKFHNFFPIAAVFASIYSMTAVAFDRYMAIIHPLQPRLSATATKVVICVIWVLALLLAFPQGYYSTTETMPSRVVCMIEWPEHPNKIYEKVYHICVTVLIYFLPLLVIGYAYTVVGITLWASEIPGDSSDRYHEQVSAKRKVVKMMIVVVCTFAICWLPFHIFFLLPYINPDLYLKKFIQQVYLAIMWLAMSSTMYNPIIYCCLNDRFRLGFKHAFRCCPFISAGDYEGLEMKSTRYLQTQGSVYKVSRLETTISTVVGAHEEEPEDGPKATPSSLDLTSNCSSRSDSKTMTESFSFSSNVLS

Activity (Substance-P receptor [1]) | Structure (SMILES) | pIC50 (Substance-P receptor [2])
inactive | CN1C(=O)[C@@H]2C[C@@]3([C@@]45C[C@H]6C(=O)N(C)[C@@H](Cc7ccccc7)C(=O)N6[C@@H]4N(/C=C/c4ccccc4)c4ccccc45)c4ccccc4N[C@H]3N2C(=O)[C@@H]1Cc1ccccc1 | 
 | CN1C(=O)[C@@H]2C[C@@]3([C@@]45C[C@H]6C(=O)N(C)[C@@H](Cc7ccccc7)C(=O)N6[C@@H]4Nc4ccccc45)c4ccccc4N[C@H]3N2C(=O)[C@@H]1Cc1ccccc1 [DITRYPTOPHENALINE] | 4.92
 | O=C1N[C@@H](Cc2ccccc2)C(=O)N2[C@H]3Nc4ccccc4[C@@]3([C@]34C[C@H]5C(=O)N[C@@H](Cc6ccccc6)C(=O)N5[C@H]3Nc3ccccc34)C[C@@H]12 | 6.64
